Source: ChEMBL document CHEMBL1201862, “PubChem BioAssay data set” (2004)
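Test compounds were applied to cells in 96-well plates for 48 hours at 5 doses. At the GI50, growth is halved.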 Calls of active or inactive are those of the source. Cut-off read from the data, not from the text of the source: active = GI50 up to about 1.1 µM and inactive = higher.

How the values were obtained:
Assay in all cases: inhibition of tumour cell growth, NCI panel, 48 h
BT-549 = system: BT-549
RXF 393 = system: RXF 393
MDA-N = system: MDA-N
SNB-19 = system: SNB-19
HOP-62 = system: HOP-62
U-251 = system: U-251
NCI/ADR-RES = system: NCI/ADR-RES
SK-MEL-5 = system: SK-MEL-5
OVCAR-8 = system: OVCAR-8
MDA-MB-435 = system: MDA-MB-435
A498 = system: A498
CAKI-1 = system: CAKI-1
HT-29 = system: HT-29
EKVX = system: EKVX
OVCAR-3 = system: OVCAR-3
OVCAR-4 = system: OVCAR-4
HCT-116 = system: HCT-116
IGROV-1 = system: IGROV-1
Hs-578T = system: Hs-578T
SF-268 = system: SF-268
OVCAR-5 = system: OVCAR-5
SK-MEL-28 = system: SK-MEL-28
NCI-H226 = system: NCI-H226
A549 = system: A549
SK-OV-3 = system: SK-OV-3
UO-31 = system: UO-31
LOX IMVI = system: LOX IMVI
M14 = system: M14
KM12 = system: KM12
COLO 205 = system: COLO 205
NCI-H522 = system: NCI-H522
HCT-15 = system: HCT-15
SNB-75 = system: SNB-75
T47D = system: T47D
SN12C = system: SN12C
786-0 = system: 786-0
Malme-3M = system: Malme-3M
PC-3 = system: PC-3
DU-145 = system: DU-145
TK-10 = system: TK-10
SF-539 = system: SF-539
SF-295 = system: SF-295
SK-MEL-2 = system: SK-MEL-2
NCI-H23 = system: NCI-H23
NCI-H460 = system: NCI-H460
UACC-257 = system: UACC-257
ACHN = system: ACHN
MCF7 = system: MCF7
MDA-MB-231 = system: MDA-MB-231
SW-620 = system: SW-620
MOLT-4 = system: MOLT-4
HL-60 = system: HL-60
CCRF-CEM = system: CCRF-CEM
UACC-62 = system: UACC-62
HOP-92 = system: HOP-92
K562 = system: K562
RPMI-8226 = system: RPMI-8226
HCC 2998 = system: HCC 2998
SR = system: SR

Structure (SMILES): CCN(CC)CCNc1n[n+]([O-])c2cc([N+](=O)[O-])ccc2[n+]1[O-]
- GI50 (BT-549): 1.81 µM (inactive)
- GI50 (RXF 393): 1.47 µM (inactive)
- GI50 (MDA-N): 0.562 µM (active)
- GI50 (SNB-19): 1.28 µM (inactive)
- GI50 (HOP-62): 0.385 µM (active)
- GI50 (U-251): 0.701 µM (active)
- GI50 (NCI/ADR-RES): 1.11 µM (active)
- GI50 (SK-MEL-5): 0.362 µM (active)
- GI50 (OVCAR-8): 0.391 µM (active)
- GI50 (MDA-MB-435): 0.826 µM (active)
- GI50 (A498): 1.08 µM (active)
- GI50 (CAKI-1): 0.204 µM (active)
- GI50 (HT-29): 0.252 µM (active)
- GI50 (EKVX): 1.9 µM (inactive)
- GI50 (OVCAR-3): 0.849 µM (active)
- GI50 (OVCAR-4): 0.828 µM (active)
- GI50 (HCT-116): 0.318 µM (active)
- GI50 (IGROV-1): 0.132 µM (active)
- GI50 (Hs-578T): 3.11 µM (inactive)
- GI50 (SF-268): 0.661 µM (active)
- GI50 (OVCAR-5): 1.47 µM (inactive)
- GI50 (SK-MEL-28): 5.35 µM (inactive)
- GI50 (NCI-H226): 1.87 µM (inactive)
- GI50 (A549): 0.678 µM (active)
- GI50 (SK-OV-3): 0.729 µM (active)
- GI50 (UO-31): 1.49 µM (inactive)
- GI50 (LOX IMVI): 0.467 µM (active)
- GI50 (M14): 0.423 µM (active)
- GI50 (KM12): 0.543 µM (active)
- GI50 (COLO 205): 0.348 µM (active)

Structure (SMILES): COc1cc2c(OC)c3cc(C)oc(=O)c3c(O)c2c(O)c1-c1c(OC)cc2c(OC)c3cc(C)oc(=O)c3c(O)c2c1O
- GI50 (NCI-H522): 18.7 µM (inactive)
- GI50 (BT-549): 24.5 µM (inactive)
- GI50 (RXF 393): 20.1 µM (inactive)
- GI50 (HCT-15): 18.5 µM
- GI50 (SNB-75): 45.1 µM (inactive)
- GI50 (T47D): 36.4 µM (inactive)
- GI50 (SN12C): 20.7 µM (inactive)
- GI50 (786-0): 22.2 µM (inactive)
- GI50 (SNB-19): 25.2 µM (inactive)
- GI50 (HOP-62): 15.2 µM (inactive)
- GI50 (Malme-3M): 17.7 µM (inactive)
- GI50 (PC-3): 14 µM (inactive)
- GI50 (DU-145): 33.9 µM (inactive)
- GI50 (U-251): 15.8 µM (inactive)
- GI50 (NCI/ADR-RES): 17.1 µM (inactive)
- GI50 (SK-MEL-5): 16.7 µM (inactive)
- GI50 (OVCAR-8): 13 µM (inactive)
- GI50 (TK-10): 24.4 µM (inactive)
- GI50 (MDA-MB-435): 18.2 µM (inactive)
- GI50 (A498): 24.2 µM (inactive)
- GI50 (CAKI-1): 15.2 µM (inactive)
- GI50 (SF-539): 17.6 µM (inactive)
- GI50 (HT-29): 22 µM (inactive)
- GI50 (EKVX): 21.9 µM (inactive)
- GI50 (OVCAR-3): 16.6 µM (inactive)
- GI50 (SF-295): 18.6 µM (inactive)
- GI50 (SK-MEL-2): 17.5 µM (inactive)
- GI50 (NCI-H23): 16.6 µM (inactive)
- GI50 (NCI-H460): 21.6 µM (inactive)
- GI50 (OVCAR-4): 39.1 µM (inactive)
- GI50 (UACC-257): 20.2 µM (inactive)
- GI50 (HCT-116): 14.9 µM (inactive)
- GI50 (IGROV-1): 14 µM (inactive)
- GI50 (ACHN): 16.5 µM (inactive)
- GI50 (MCF7): 25.6 µM (inactive)
- GI50 (MDA-MB-231): 18.4 µM (inactive)
- GI50 (Hs-578T): 34.2 µM (inactive)
- GI50 (SW-620): 30 µM (inactive)
- GI50 (SF-268): 21.5 µM (inactive)
- GI50 (MOLT-4): 15.7 µM (inactive)
- GI50 (OVCAR-5): 19.7 µM (inactive)
- GI50 (HL-60): 15.2 µM (inactive)
- GI50 (CCRF-CEM): 18.6 µM (inactive)
- GI50 (UACC-62): 20.9 µM (inactive)
- GI50 (HOP-92): 16.1 µM (inactive)
- GI50 (K562): 16.4 µM (inactive)
- GI50 (SK-MEL-28): 21.2 µM (inactive)
- GI50 (NCI-H226): 20.3 µM (inactive)
- GI50 (A549): 19.4 µM (inactive)
- GI50 (SK-OV-3): 45.2 µM (inactive)
- GI50 (RPMI-8226): 17.3 µM (inactive)
- GI50 (UO-31): 18.5 µM (inactive)
- GI50 (LOX IMVI): 19.6 µM (inactive)
- GI50 (M14): 18.1 µM (inactive)
- GI50 (HCC 2998): 18.9 µM (inactive)
- GI50 (KM12): 19.1 µM (inactive)

Structure (SMILES): c1ccc2c(c1)SC1=Nc3sc4ccccc4[n+]3CN12
- GI50 (NCI-H522): 2.7 µM (inactive)
- GI50 (BT-549): 22.8 µM (inactive)
- GI50 (HCT-15): 40.2 µM
- GI50 (SR): 16.9 µM (inactive)
- GI50 (T47D): 18.5 µM (inactive)
- GI50 (SN12C): 20.8 µM (inactive)
- GI50 (786-0): 25.9 µM (inactive)
- GI50 (SNB-19): 19.9 µM (inactive)
- GI50 (HOP-62): 21.9 µM (inactive)
- GI50 (Malme-3M): 10.5 µM (inactive)
- GI50 (PC-3): 24.8 µM (inactive)
- GI50 (DU-145): 27.8 µM (inactive)
- GI50 (U-251): 3.3 µM (inactive)
- GI50 (NCI/ADR-RES): 30.9 µM (inactive)
- GI50 (SK-MEL-5): 2.52 µM (inactive)
- GI50 (OVCAR-8): 26.4 µM (inactive)
- GI50 (TK-10): 14.8 µM (inactive)
- GI50 (MDA-MB-435): 19.7 µM (inactive)
- GI50 (CAKI-1): 14.2 µM (inactive)
- GI50 (SF-539): 20.5 µM (inactive)
- GI50 (HT-29): 12.6 µM (inactive)
- GI50 (EKVX): 2.15 µM (inactive)
- GI50 (OVCAR-3): 2.88 µM (inactive)
- GI50 (SF-295): 29.4 µM (inactive)
- GI50 (SK-MEL-2): 11.4 µM (inactive)
- GI50 (NCI-H23): 6.01 µM (inactive)
- GI50 (NCI-H460): 15.3 µM (inactive)
- GI50 (UACC-257): 30.7 µM (inactive)
- GI50 (HCT-116): 18.5 µM (inactive)
- GI50 (IGROV-1): 11.8 µM (inactive)
- GI50 (ACHN): 32.8 µM (inactive)
- GI50 (MCF7): 16.4 µM (inactive)
- GI50 (MDA-MB-231): 18.3 µM (inactive)
- GI50 (Hs-578T): 13.7 µM (inactive)
- GI50 (SW-620): 10.4 µM (inactive)
- GI50 (SF-268): 17.4 µM (inactive)
- GI50 (MOLT-4): 11.7 µM (inactive)
- GI50 (OVCAR-5): 15 µM (inactive)
- GI50 (HL-60): 32.1 µM (inactive)
- GI50 (CCRF-CEM): 16.6 µM (inactive)
- GI50 (UACC-62): 15.5 µM (inactive)
- GI50 (HOP-92): 7.53 µM (inactive)
- GI50 (K562): 6.12 µM (inactive)
- GI50 (A549): 1.04 µM (active)
- GI50 (SK-OV-3): 17.2 µM (inactive)
- GI50 (RPMI-8226): 21.8 µM (inactive)
- GI50 (UO-31): 18.5 µM (inactive)
- GI50 (M14): 22 µM (inactive)
- GI50 (KM12): 2.34 µM (inactive)
- GI50 (COLO 205): 2.13 µM (inactive)
